The values that follow come from US20050186137A1, “Novelty-induced hypophagia-based assays for identifying agents to treat anxiety and depression” (priority 2003, published 2005).

The test system of data set [1] is BALB/cJ, DBA/2J, C57BL/6J, and 129SvEv mice. Put plainly: Open field test, strain comparison. Type of data set: in vivo, mouse. The settings on record: for center measures: chronic fluoxetine 5 or 10 mg/kg/day. The procedure:
For the strain comparison study, 36 male mice of four strains (BALB/cJ, DBA/2J, C57BL/6J, 129SvEv) were subjects for a total of 144 mice. Mice were tested in the OF beginning on day 30 or 33 of chronic fluoxetine treatment. Mice were tested for 15 min on three consecutive days to maximize activity levels. Mice were then tested in the modified FST on day 36 or 37.
Open field test: Motor activity was quantified in four Plexiglas OF boxes 43 x 43 cm (MED Associates, Georgia, Vt.). Two sets of 16 pulse-modulated infrared photobeams were placed on opposite walls 2.5-cm apart to record x-y ambulatory movements. Activity chambers were computer interfaced for data sampling at 100-ms resolution. The computer defined grid lines that divided each OF into center and surround regions, with each of four lines being 11 cm from each wall. Dependent measures were the number of entries into the center, the distance traveled in the center, total time spent in the center, and distance traveled in the center divided by total distance traveled. Overall motor activity was quantified as the total distance traveled (cm).
Open field test: For Experiment 1, two-factor ANOVAs with fluoxetine as a between-subject factor and day as a within-subject factor were applied to five measures for each strain: time spent in the center, distance traveled in the center, center distance/total distance traveled, entries into the center, and total distance traveled. Main effects of fluoxetine or significant interactions of fluoxetine and day were resolved using post-hoc ANOVAs with adjusted p-values and/or Newman-Keuls post-hoc tests. Subchronic and chronic experiments in Balb/cJ mice were analyzed using one-way ANOVAs with fluoxetine as a between-subjects factor and Newman-Keuls post-hoc tests for the same variables. Because data deviated substantially from a normal distribution due to low activity levels of Balb/cJ mice, analyses were applied to log transformed data.
Remaining significant effects of fluoxetine indicate independence between measures of locomotor activity and center measures.

A short description of data set [2]: Serum fluoxetine levels by liquid chromatography with fluorescence detection. Type of data set: in vivo, mouse. Particulars: Balb/cJ mice. The protocol:
Fluoxetine was a generous gift from Lilly (Indianapolis, Ind.), and was delivered ad libitum in the drinking water. Fluoxetine was dissolved in tap water and changed weekly. For initial strain comparison studies, daily drinking was measured and the concentration of fluoxetine solutions were adjusted to deliver 0, 5, or 10 mg/kg/day of fluoxetine to each strain. For subchronic and chronic studies in BALB/cJ mice, 80-mg/L, 160 mg/L, and 240 mg/L fluoxetine was given, and drinking was recorded throughout the study. Fluoxetine plasma levels were determined by liquid chromatography with fluorescence detection (Suckow et al., 1992) for chronically treated Balb/cJ mice. 5-methoxy-3(1,2,3,6)tetrahydropyridin-4-yl-1H-indole (RU24969) was obtained from Tocris Cookson (Ellisville, Mo.), dissolved in saline, and delivered i.p. (5 ml/kg) with 26 gauge needles. Both drugs were protected from light.

Another data set concerns BALB/cJ mice. Put plainly: Prepulse inhibition of startle. Type of data set: in vivo, mouse. The protocol: For chronic fluoxetine studies in BALB/cJ mice, 60 male BALB/cJ mice were tested in the OF for 30 min on days 19 or 20 of chronic fluoxetine treatment. Mice were then pretested and tested in the modified FST on days 21 and 22, respectively. Animals were then allowed to adapt to being singly housed, and were trained for NIH on days 25-27. Home cage and novel cage testing occurred on days 28 and 29, respectively. Mice were then assessed for PPI on days 34 or 35.
Studies of subchronic fluoxetine were conducted using separate groups of 60 male BALB/cJ mice to prevent fluoxetine treatment from exceeding one week. One group was tested in the OF after one day of subchronic fluoxetine treatment. Mice were then pretested after 6 and tested after 7 days of subchronic fluoxetine treatment in the modified FST. A second group of BALB/cJ mice began fluoxetine treatment after being singly housed. They were then tested in the NIH test after 4 (home) and 5 (novel) days of subchronic fluoxetine treatment. A third group was tested for PPI after one or two days of subchronic fluoxetine treatment.
Prepulse Inhibition: Startle experiments were performed in MED-Associates chambers. Nonrestrictive Plexiglas cylinders 5 cm in diameter rested on a Plexiglas platform with a transducer amplifier. The sound-dampening isolation chambers were ventilated, well-lit, and equipped with an acoustic stimulator. Data acquisition was performed using Med-Associates software.
Five different trial types were presented in the test session: a 40-msec broadband 120 dB burst (PULSE ALONE trial); three different PREPULSE+PULSE trials in which 20-msec long 3 dB (pp3), 6 dB (pp6), or 12 dB (pp12) stimuli above a 70 dB background preceded the 120 dB pulse by 100 msec (onset to onset), and a NO STIMULUS trial, in which only the background noise was presented. Trials were presented in a pseudo-random order. A variable interval of 10-20 seconds separated trials.
The test session consisted of 62 test trials. The session began with a 10 min acclimation period, followed by four consecutive blocks of test trials. Blocks one and four consisted of six consecutive PULSE ALONE trials, while blocks two and three contained six PULSE ALONE trials, five pp3+p120 trials, five pp6+p120 trials, five pp12+p120 trials, and four NO STIMULUS trials. Analyses were performed using average values for each trial type.
Prepulse Inhibition: PPI was calculated as the averaged startle magnitude caused by PULSE ALONE trials from blocks two and three, minus the averaged startle magnitude caused by the prepulse-pulse trials, all divided by the averaged PULSE ALONE values from blocks two and three. The resulting value was multiplied by 100 and presented as a percent PPI value. Four-factor ANOVAs with fluoxetine and RU24969 as between subjects factors and prepulse intensity and block as within subjects variables assessed percent PPI levels. Interactions were resolved using post-hoc ANOVAs with adjusted p-values, and/or Newman-Keuls post-hoc tests.

For data set [3] the following is noted: patients taking 20-80 mg/day Prozac; cited from earlier work.
Setting [4] is: 129SvEv mice, chronic 5 and 10 mg/kg/day, day 1, relative to controls.

For `CNCCC(Oc1ccc(C(F)(F)F)cc1)c1ccccc1` (stereo not drawn) [fluoxetine], the locomotor activity result in data set [1] (129SvEv mice, chronic 10 mg/kg/day, relative to both other doses on day 1 and to 5 mg/kg/day on day 3) is recorded as “reduced locomotor activity”; in data set [1] (BALB/cJ mice, chronic fluoxetine 5 or 10 mg/kg/day in drinking water, three consecutive days), “no changes in locomotor activity”; in data set [1] (C57BL/6J mice, chronic 10 mg/kg/day, relative to controls) it was “reduced locomotor activity overall”; in data set [1] (DBA/2J mice, chronic fluoxetine (10 mg/kg/day vs controls on day 3)) it was “trend towards increased locomotor activity”. Moreover, the “time in the center” value in data set [1] (129SvEv mice, chronic 5 and 10 mg/kg/day) is “reduced time in the center relative to control”. In data set [1] (setting [4]), the center entries entry is recorded as “reduced”. Moreover, the “distance traveled in the center” value in data set [1] (setting [4]) is recorded as “reduced the distance traveled in the center”. Further, the center measures entry in data set [1] (BALB/cJ mice) and in data set [1] (DBA/2J mice) was “produced no changes” each time. Moreover, the “entries into the center” value in data set [1] (C57BL/6J mice, chronic 5 and 10 mg/kg/day, relative to control) was “overall reduction in the number of entries into the center”. The center/total distance traveled result in data set [1] (any of the four strains, chronic fluoxetine) was “no effects”. The Serum fluoxetine levels is 170.3 ± 57.8 ng/mL in data set [2] (chronic fluoxetine 10 mg/kg/day (80 mg/L drinking water)), 563.4 ± 118.4 ng/mL in data set [2] (chronic fluoxetine 18 mg/kg/day (160 mg/L drinking water)) and 1779.2 ± 364.9 ng/mL in data set [2] (chronic fluoxetine 25 mg/kg/day (240 mg/L drinking water)). Also, the “PPI in RU24969-treated mice” value in the data set with BALB/cJ mice (chronic 10 mg/kg/day fluoxetine, 12 dB prepulse intensity) is “increased PPI relative to RU24969-treated mice receiving 0 and 18 mg/kg/day fluoxetine”. The “Startle reactivity, interactions of RU24969 with fluoxetine” value in the data set with BALB/cJ mice (chronic fluoxetine) is listed as “no interactions”. In addition, the “RU24969-induced disruption of PPI” value with BALB/cJ mice (chronic fluoxetine 10, 18, 25 mg/kg/day, 10 mg/kg RU24969, 3, 6, 12 dB prepulse) was “RU24969 disrupted PPI in control mice, but not mice treated with any dose of fluoxetine”. The “PPI, fluoxetine alone” value in the data set with BALB/cJ mice (chronic fluoxetine without RU24969) is “No effects”. The “PPI, interactions of RU24969 with fluoxetine” value with BALB/cJ mice (subchronic fluoxetine (1-2 days)) is “No interactions”. The “startle reactivity in the second and third blocks” value in the data set with BALB/cJ mice (subchronic fluoxetine study (1-2 days), 10 mg/kg RU24969) is “no effects”. The “range of plasma levels found in patients” value in data set [3] was 100 to 700 ng/mL.
